Experimental data taken from ChEMBL document CHEMBL3228028, “Enzyme affinity of the 5,6-dihydro derivatives of the substrate and product of thymidylate synthetase catalysis” (J Med Chem, 1979).

Legend:
Thymidylate synthase [1] = target: T1, Thymidylate synthase (Lactobacillus casei, UniProt P00469); assay: Competitive inhibition of Lactobacillus casei thymidylate synthetase using 2'-deoxy[5-3H]uridine-5'-phosphate as substrate assessed as release of water after 15 mins by double reciprocal plot analysis; set-up: species or system Lacticaseibacillus casei
T1 sequence (P00469 whole entry): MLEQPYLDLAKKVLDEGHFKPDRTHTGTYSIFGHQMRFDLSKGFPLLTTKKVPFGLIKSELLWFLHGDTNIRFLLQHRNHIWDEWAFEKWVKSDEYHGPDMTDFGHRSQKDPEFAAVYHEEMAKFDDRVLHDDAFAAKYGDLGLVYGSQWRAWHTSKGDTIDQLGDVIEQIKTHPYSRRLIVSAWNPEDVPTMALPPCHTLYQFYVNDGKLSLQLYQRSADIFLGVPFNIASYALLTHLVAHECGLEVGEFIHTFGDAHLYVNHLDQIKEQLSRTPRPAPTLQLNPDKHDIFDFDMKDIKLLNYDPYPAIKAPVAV

Thymidylate synthase [2] = target: T1, Thymidylate synthase; assay: Competitive inhibition of Lactobacillus casei thymidylate synthetase using dTMP as substrate assessed as release of water after 15 mins by double reciprocal plot analysis; set-up: species or system Lacticaseibacillus casei

Ki (Thymidylate synthase [1])	Ki (Thymidylate synthase [2])	SMILES
100 µM	2.8 µM	O=C1CCN([C@H]2C[C@H](O)[C@@H](COP(=O)(O)O)O2)C(=O)N1
150 µM		CC1CN([C@H]2C[C@H](O)[C@@H](COP(=O)(O)O)O2)C(=O)NC1=O (stereo partly drawn)
